Source: patent US8865728B2, “Combinations comprising methotrexate and DHODH inhibitors” (Almirall, S.A., priority 2008, dated 2014)
“Also recorded” adds a separate entry of the source.

Legend:
[1] = Acute hepatotoxicity assay in Swiss mice (plasma liver markers); format: in vivo; settings: for ALT plasma level / AST plasma level / BIL (total bilirubin) plasma level: Swiss mice, single 100 mg/kg intraperitoneal, 24 h after administration
Procedure: Acute hepatotoxicity assays were performed in Swiss mice. Animals received a single administration of either vehicle, or 100 mg/kg of teriflunomide or a compound of the present invention (compounds from the list indicated previously) by intraperitoneal route. Twenty-four hours later, animals were sacrificed and the levels of liver markers AST(aspartate aminotransferase), ALT(alanine aminotransferase) and BIL(total bilirubin) in plasma were determined.

human DHODH = human DHODH (Homo sapiens, UniProt Q02127); assay: Inhibition of human DHODH activity assay (DCIP chromogen reduction); format: biochemical; settings: chromogen reduction assay with DCIP, human enzyme extract; read-out: hDHODH IC50
Sequence of human DHODH (Q02127 whole entry): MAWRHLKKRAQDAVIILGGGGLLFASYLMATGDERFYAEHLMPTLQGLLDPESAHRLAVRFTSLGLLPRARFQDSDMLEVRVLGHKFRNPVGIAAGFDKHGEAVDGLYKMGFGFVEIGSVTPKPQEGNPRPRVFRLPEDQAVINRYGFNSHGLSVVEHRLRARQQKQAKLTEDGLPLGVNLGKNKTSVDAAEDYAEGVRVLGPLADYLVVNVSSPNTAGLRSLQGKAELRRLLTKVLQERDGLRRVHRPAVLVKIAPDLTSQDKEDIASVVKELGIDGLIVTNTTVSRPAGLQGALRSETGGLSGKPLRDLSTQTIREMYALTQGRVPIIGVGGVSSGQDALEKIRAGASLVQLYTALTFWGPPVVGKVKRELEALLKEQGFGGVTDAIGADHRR
Procedure: DHODH activity and its inhibition were studied using a chromogen reduction assay with DCIP (2,6-dichlorophenol-indophenol).
Enzyme extracts (8 μl, ˜1.5 μg of human protein) were incubated in 96-well plates. The assay mixture (200 μl) contained 200 μM CoQD, 100 μM L-DHO, 120 μM DCIP in the assay buffer (100 mM HEPES pH 8.0, 150 mM NaCl, 10% Glicerol, 0.05% Triton X-100) and 2 μl of test compound.
The reaction was initiated by adding the enzyme and then incubated for 10 min at room temperature before measuring DCIP reduction by counting a decrease in absorbance at 600 nm using standard instrumentation (Spectramax).
All reactions were carried out in duplicate and graphs, determining IC50 values for each compound, were plotted using the ABase software.

[2] = test system: rat adjuvant-induced arthritis model (AIA); assay: Efficacy in rat adjuvant-induced arthritis model (AIA), curative protocol; format: in vivo, Wistar rats; settings: arthritic rats, oral once a day, MTX 0.05 mg/Kg/day, AUC of right paw volumes days 10-21 vs vehicle; for % AUC inhibition right paw: Teriflunomide 3 mg/Kg/day, one experiment with 6 animals
Procedure: The effect of DHODH inhibitor compounds were tested in combination with methotrexate (0.05 mg/Kg/day) in the rat adjuvant-induced arthritis model (AIA) in animals with established disease (curative protocol). Briefly, Complete Freund Adjuvant (CFA) was injected into the left hind footpad of Wistar rats, and 10 days later the swelling of the two rear paws was measured with a plethysmometer. […] Compounds were administered orally once a day for 10 days and paw volumes were determined every two days up to day 21.

Structure (SMILES): COc1cccc(-c2ccc(Nc3ncccc3C(=O)O)c(F)c2)c1 [Compound 1, 2-(3-Fluoro-3′-methoxybiphenyl-4-ylamino)nicotinic acid]
- ALT plasma level [1]: 99 IU/l
- AST plasma level [1]: 84 IU/l
- BIL (total bilirubin) plasma level [1]: 0.03 mg/dL

Structure (SMILES): CCOc1cccc(-c2ccc(Nc3ncccc3C(=O)O)c(F)c2)c1 [Compound 2, 2-(3′-Ethoxy-3-fluorobiphenyl-4-ylamino)nicotinic acid]
- ALT plasma level [1]: 35 IU/l
- AST plasma level [1]: 57 IU/l
- BIL (total bilirubin) plasma level [1]: 0 mg/dL

Structure (SMILES): O=C(O)c1cccnc1Nc1ccc(-c2cccc(OC(F)(F)F)c2)cc1F [Compound 3, 2-(3-Fluoro-3′-(trifluoromethoxy)biphenyl-4-ylamino)nicotinic acid]
- ALT plasma level [1]: 52 IU/l
- AST plasma level [1]: 83 IU/l
- BIL (total bilirubin) plasma level [1]: 0.01 mg/dL

Structure (SMILES): CCOc1cccc(-c2ccc(Nc3ncccc3C(=O)O)c(OC(F)(F)F)c2)c1 [Compound 4, 2-(3′-Ethoxy-3-(trifluoromethoxy)biphenyl-4-ylamino)nicotinic acid]
- ALT plasma level [1]: 70 IU/l
- AST plasma level [1]: 108 IU/l
- BIL (total bilirubin) plasma level [1]: 0.05 mg/dL

Structure (SMILES): CCOc1cccc(-c2cc(F)c(Nc3ncccc3C(=O)O)c(F)c2)c1 [Compound 19, 2-(3′-Ethoxy-3,5-difluorobiphenyl-4-ylamino)nicotinic acid]
- ALT plasma level [1]: 60 IU/l
- AST plasma level [1]: 92 IU/l
- BIL (total bilirubin) plasma level [1]: 0.05 mg/dL

Structure (SMILES): COc1cccc(-c2cc(F)c(Nc3ncccc3C(=O)O)c(F)c2)c1 [Compound 20, 2-(3,5-Difluoro-3′-methoxybiphenyl-4-ylamino)nicotinic acid]
- ALT plasma level [1]: 73 IU/l
- AST plasma level [1]: 95 IU/l
- BIL (total bilirubin) plasma level [1]: 0 mg/dL

Structure (SMILES): COc1cccc(-c2ccc(Nc3cnccc3C(=O)[O-])c(OC(F)(F)F)c2)c1.[Li+] [Compound 23, Lithium 3-(3′-methoxy-3-(trifluoromethoxy)biphenyl-4-ylamino)isonicotinate]
- ALT plasma level [1]: 35 IU/l
- AST plasma level [1]: 72 IU/l
- BIL (total bilirubin) plasma level [1]: 0 mg/dL

Structure (SMILES): COc1cccc(-c2cc(F)c(Nc3ncc(C)cc3C(=O)O)c(F)c2)c1 [Compound 35, 2-(3,5-Difluoro-3′-methoxybiphenyl-4-ylamino)-5-methylnicotinic acid]
- IC50 (human DHODH): 12 nM

Structure (SMILES): O=C(O)c1cccnc1Nc1c(F)cc(-c2cccc(OC3CC3)c2)cc1F [Compound 47, 2-(3′-cyclopropoxy-3,5-difluorobiphenyl-4-ylamino)nicotinic acid]
- ALT plasma level [1]: 66 IU/l
- AST plasma level [1]: 91 IU/l
- BIL (total bilirubin) plasma level [1]: 0.14 mg/dL

Structure (SMILES): Cc1c(-c2ccccc2)cc(F)c(Nc2ncccc2C(=O)O)c1F [Compound 48, 2-(3,5-difluoro-2-methylbiphenyl-4-ylamino)nicotinic acid]
- ALT plasma level [1]: 44 IU/l
- AST plasma level [1]: 95 IU/l
- BIL (total bilirubin) plasma level [1]: 0.08 mg/dL

Structure (SMILES): Cc1c(-c2ccccc2Cl)cc(F)c(Nc2ncccc2C(=O)O)c1F [Compound 57, 2-(2′-chloro-3,5-difluoro-2-methylbiphenyl-4-ylamino)nicotinic acid]
- ALT plasma level [1]: 60 IU/l
- AST plasma level [1]: 109 IU/l
- BIL (total bilirubin) plasma level [1]: 0.06 mg/dL

Structure (SMILES): CN(Cc1cnc2nc(N)nc(N)c2n1)c1ccc(C(=O)N[C@@H](CCC(=O)O)C(=O)O)cc1 [MTX, Methotrexate]
- % AUC inhibition right paw [2]: 24%
- % inhibition of the inflammation (AUC) Right paw ([2]; compound A 3 mg/Kg/day, mean of two independent experiments): 37%

Structure (SMILES): C/C(O)=C(\C#N)C(=O)Nc1ccc(C(F)(F)F)cc1 [Teriflunomide, reference compound]
- % AUC inhibition right paw [2]: 56%
- ALT plasma level [1]: 423 IU/l
- AST plasma level [1]: 542 IU/l
- BIL (total bilirubin) plasma level [1]: 0.5 mg/dL
- change in plasma liver markers (ALT, AST, BIL) compared to vehicle-treated mice ([1]; mice, intraperitoneal route, 100 mg/kg): dramatic increase in the three liver markers; also recorded: drastic increase in the levels of transaminases and bilirrubin in plasma
